Results: ChEMBL document CHEMBL3217615, “Novel 3,5-bis(arylidiene)-4-piperidone based monocarbonyl analogs of curcumin: anticancer activity evaluation and mode of action study” (2014)

Assays:
Type in all cases: functional
DU-145 = assay: Growth inhibition of human DU145 cells assessed as cell growth at 10^-5 M after 48 hrs by sulforhodamine B assay; settings: DU-145, 48 h, read-out: Activity
[1] = Growth inhibition of human HOP92 cells assessed as cell growth at 10^-5 M after 48 hrs by sulforhodamine B assay; settings: HOP-92, 48 h, read-out: Activity
[2] = Growth inhibition of human Hs 578T cells assessed as cell growth at 10^-5 M after 48 hrs by sulforhodamine B assay; settings: read-out: Activity
NCI-H522 = assay: Growth inhibition of human NCI-H522 cells assessed as cell growth at 10^-5 M after 48 hrs by sulforhodamine B assay; settings: NCI-H522, 48 h, read-out: Activity
M14 = assay: Growth inhibition of human M14 cells assessed as cell growth at 10^-5 M after 48 hrs by sulforhodamine B assay; settings: M14, 48 h, read-out: Activity
MDA-MB-468 = assay: Growth inhibition of human MDA-MB-468 cells assessed as cell growth at 10^-5 M after 48 hrs by sulforhodamine B assay; settings: MDA-MB-468, 48 h, read-out: Activity
SK-OV-3 = assay: Growth inhibition of human SKOV3 cells assessed as cell growth at 10^-5 M after 48 hrs by sulforhodamine B assay; settings: SK-OV-3, 48 h, read-out: Activity
NCI-H23 = assay: Growth inhibition of human NCI-H23 cells assessed as cell growth at 10^-5 M after 48 hrs by sulforhodamine B assay; settings: NCI-H23, 48 h, read-out: Activity
HL-60(TB) = assay: Growth inhibition of human HL-60(TB) cells assessed as cell growth at 10^-5 M after 48 hrs by sulforhodamine B assay; settings: HL-60, 48 h, read-out: Activity
CCRF-CEM = assay: Growth inhibition of human CCRF-CEM cells assessed as cell growth at 10^-5 M after 48 hrs by sulforhodamine B assay; settings: read-out: Activity
[3] = Growth inhibition of human OVCAR8 cells assessed as cell growth at 10^-5 M after 48 hrs by sulforhodamine B assay; settings: OVCAR-8, 48 h, read-out: Activity
HOP-62 = assay: Growth inhibition of human HOP62 cells assessed as cell growth at 10^-5 M after 48 hrs by sulforhodamine B assay; settings: HOP-62, 48 h, read-out: Activity
A549 = assay: Growth inhibition of human A549/ATCC cells assessed as cell growth at 10^-5 M after 48 hrs by sulforhodamine B assay; settings: A549, 48 h, read-out: Activity
SR = assay: Growth inhibition of human SR cells assessed as cell growth at 10^-5 M after 48 hrs by sulforhodamine B assay; settings: read-out: Activity
NCI-H322M = assay: Growth inhibition of human NCI-H322M cells assessed as cell growth at 10^-5 M after 48 hrs by sulforhodamine B assay; settings: read-out: Activity
[4] = Growth inhibition of human UACC62 cells assessed as cell growth at 10^-5 M after 48 hrs by sulforhodamine B assay; settings: UACC-62, 48 h, read-out: Activity
SNB-75 = assay: Growth inhibition of human SNB75 cells assessed as cell growth at 10^-5 M after 48 hrs by sulforhodamine B assay; settings: SNB-75, 48 h, read-out: Activity
HT-29 = assay: Growth inhibition of human HT-29 cells assessed as cell growth at 10^-5 M after 48 hrs by sulforhodamine B assay; settings: HT-29, 48 h, read-out: Activity
[5] = Growth inhibition of human MOLT4 cells assessed as cell growth at 10^-5 M after 48 hrs by sulforhodamine B assay; settings: MOLT-4, 48 h, read-out: Activity

Work on `O=C1/C(=C/c2c(Cl)cccc2Cl)CN(S(=O)(=O)c2ccccc2)C/C1=C\c1c(Cl)cccc1Cl` yielded a growth at 10 µM (DU-145) of 85.8%, a growth at 10 µM [1] of 54.5% and a growth at 10 µM [2] of 93%. The growth at 10 µM (NCI-H522) was 72.5%, the growth at 10 µM (M14) was 66.3% and the growth at 10 µM (MDA-MB-468) was 80.4%. For the same compound, the growth at 10 µM (SK-OV-3) was 91.9%, the growth at 10 µM (NCI-H23) was 82.6% and the growth at 10 µM (HL-60(TB)) was 81%. It also gave a growth at 10 µM (CCRF-CEM) of 42.4%, a growth at 10 µM [3] of 77.3% and a growth at 10 µM (HOP-62) of 100%. The growth at 10 µM (A549) was 67.3%, the growth at 10 µM (SR) was 52.7% and the growth at 10 µM (NCI-H322M) was 85%. It also gave a growth at 10 µM [4] of 60.5%, a growth at 10 µM (SNB-75) of 66.2% and a growth at 10 µM (HT-29) of 71.5%. For the same compound, the growth at 10 µM [5] was 52.8%.
`Cc1ccc(S(=O)(=O)N2C/C(=C\c3c(Cl)cccc3Cl)C(=O)/C(=C/c3c(Cl)cccc3Cl)C2)cc1` gave a growth at 10 µM (DU-145) of 96.8%, a growth at 10 µM [1] of 73.5% and a growth at 10 µM [2] of 101%. It also gave a growth at 10 µM (NCI-H522) of 88.6%, a growth at 10 µM (M14) of 79.1% and a growth at 10 µM (MDA-MB-468) of 90.4%. The growth at 10 µM (SK-OV-3) was 93.7%, the growth at 10 µM (NCI-H23) was 97.7% and the growth at 10 µM (HL-60(TB)) was 94.5%. It also gave a growth at 10 µM (CCRF-CEM) of 72.7%, a growth at 10 µM [3] of 79.6% and a growth at 10 µM (HOP-62) of 94.5%. The growth at 10 µM (A549) was 77.1%, the growth at 10 µM (SR) was 71.1% and the growth at 10 µM (NCI-H322M) was 93.5%. The growth at 10 µM [4] was 69.5%, the growth at 10 µM (SNB-75) was 65.2% and the growth at 10 µM (HT-29) was 83.7%. For the same compound, the growth at 10 µM [5] was 68.7%.
